Measurements as given in patent US8293705B2, “HCV protease inhibitors and uses thereof” (Avila Therapeutics, Inc., priority 2007, dated 2012).

Tests used:
[1] = target: T1, HCV NS3/4A 1b protease R155K (Hepatitis C virus genotype 1b, UniProt Q9WMX2, R1181K); experiment: HCV protease FRET assay (IC50_APP), Example 16; type: biochemical; settings: reaction started immediately after enzyme addition, read-out: Inhibition (apparent IC50, IC50_APP), HCV R155K
T1 construct: 10× stocks of NS3/4A protease enzyme from Bioenza (Mountain View, Calif.); purchased Bioenza (Mountain View, Calif.)

[2] = target: T2, HCV NS3/4A 1b protease D168A (Hepatitis C virus genotype 1b, UniProt Q9WMX2, D1194A); experiment: HCV protease FRET assay (IC50_APP), Example 16; type: biochemical
T2 construct: 10× stocks of NS3/4A protease enzyme from Bioenza (Mountain View, Calif.); purchased Bioenza (Mountain View, Calif.)

[3] = target: T3, HCV NS3/4A 1b protease wild type (Hepatitis C virus genotype 1b, UniProt Q9WMX2); experiment: HCV protease FRET assay (IC50_APP), Example 16; type: biochemical
T3 construct: 10× stocks of NS3/4A protease enzyme from Bioenza (Mountain View, Calif.); purchased Bioenza (Mountain View, Calif.)

[4] = target: T4, NS3 protease self-cleavage in Huh-7-Luc-Neo-ET replicon cells (Hepatitis C virus genotype 1b, UniProt Q9WMX2, E1202G/T1280I); experiment: Inhibition of protease self cleavage in replicon cells (washout); type: cell-based; settings: 16 hours continuous exposure
T4 construct: blotted with polyclonal anti NS3 antibody (Bioenza, Calif.)
Experimental: Huh-7-Luc-Neo-ET cells were plated in Replicon Assay Medium (RPMI supplemented with 5% FBS, 1× non-essential amino acids and pen/strep) at a density of 1×10^5 cells/well in 12 well plates. Eight hours later the media was removed and replaced with 1 ml media containing test compound (5 wells per compound) and 0.02% DMSO and the cells were returned to the incubator overnight. Sixteen hours later 1 well from each compound and 1 untreated well were washed with PBS, then lysed and scraped into 30 ul of Cell Extraction Buffer (Biosource, Camarillo, Calif.) plus Complete Protease Inhibitor (Roche, Indianapolis, Ind.). The remaining wells were rinsed 2× with PBS then fed with Replicon Media and returned to the incubator. […]
Cell lysates were separated by SDS-Page (4-20%) and transferred to Immobilon-P PVDF membrane (Millipore Corporation, MA) and blotted with polyclonal anti NS3 antibody (Bioenza, Calif.). Blots were scanned on an Odyssey infrared scanner from Licor and the FL band and cleavage products were quantified separately using the Licor software provided with the scanner. The cleavage product was calculated as a percentage of the total NS3 in each sample and then normalized to the DMSO control so that the DMSO control reflects 100% activity.

[5] = test system: HCV RNA replicon in cell line ET (luc-ubi-neo/ET), human Huh7 hepatoma; experiment: Replicon luciferase assay, Example 26; type: cell-based; settings: Hepatitis C virus, Huh-7, assay of Example 26, 72 hr
Experimental: The compounds were assayed to evaluate the antiviral activity and cytotoxicity of compounds using replicon-derived luciferase activity. This assay used the cell line ET (luc-ubi-neo/ET), which is a human Huh7 hepatoma cell line that contains an HCV RNA replicon with a stable luciferase (Luc) reporter and cell culture-adaptive mutations. The ET cell line was grown in a 5% CO2 incubator at 37° C. in Dulbecco's modified essential media (DMEM) supplemented with 2 mM L-glutamine, nonessential amino acids, 100 U of penicillin/ml, 100 μg of streptomycin/mL, and 10% fetal bovine serum. G418 (Geneticin; Invitrogen) was added at a final concentration of 400 ug//mL.
All cell culture reagents were obtained from Invitrogen (Carlsbad). Cells were trypsinized (1% trypsin:EDTA) and plated out at 5×10^3 cells/well in white 96-well assay plates (Costar) dedicated to cell number (cytotoxicity) or antiviral activity assessments. Test compounds were added at six 3-fold concentrations each and the assay was run in DMEM, 5% FBS, 1% pen-strep, 1% glutamine, 1% non essential amino acid. Human interferon alpha-2b (PBL Biolabs, New Brunswick, N.J.) was included in each run as a positive control compound. Cells were processed 72 hr post test compound addition when the cells were still subconfluent. Antiviral activity was measured by analyzing replicon-derived luciferase activity using the Steady-Glo Luciferase Assay System (Promega, Madison, Wis.) according to manufacturer's instruction. The number of cells in each well was determined by Cell Titer Blue Assay (Promega). Compound profile was derived by calculating applicable EC50 (effective concentration inhibiting virus replication by 50%), EC90 (effective concentration inhibiting virus replication by 90%), IC50 (concentration decreasing cell viability by 50%) and SI50 (selective index: […]) values.

CC(C)(C)OC(=O)N[C@H]1CN(C(=O)CCl)CCC/C=C\[C@@H]2C[C@@]2(C(=O)NS(=O)(=O)C2CC2)NC(=O)[C@@H]2CC(OC(=O)N3Cc4cccc(F)c4C3)CN2C1=O (stereo partly drawn) [Compound I-47]
IC50 [1]: 10 to 100 nM | IC50 [2]: 10 to 100 nM | IC50 [3]: < 10 nM | NS3 internal self-cleavage products after treatment of replicon cells [4]: inhibited | EC50 ([5]; read-out: Inhibition, Replicon, EC50 value): 10 to 100 nM | EC90 ([5]; read-out: Inhibition, Replicon, EC90 value): 100 to 1000 nM
